Source: patent US20230114728A1 (Venatorx Pharmaceuticals, Inc., priority 2019, published 2023)
Values after ≈ are worked out from the molar mass of the structure shown.

How the values were obtained:
[1] = target: T1, E. coli K12 PBP3 (Escherichia coli, UniProt P0AD68); experiment: biochemical; format: binding
T1 construct: made in house
In short: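 A. baumannii PBP2 (2.5 μM) and PBP3 (0.2 μM) were run in 25 mM Tris pH 8.0 buffer with Tween 20; E. coli PBP3 (1.5 μM) and N. gonorrhoeae PBP2 ([…]) in 50 mM Hepes pH 8.0 buffer.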

[2] = tested on: N. gonorrhoeae WHO Q; experiment: Liquid broth MIC in Fastidious broth; format: cell-based; settings: Neisseria gonorrhoeae, read-out: Minimum Inhibitory Concentration, N. gonorrhoeae WHO Q
In short: (§1)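 Mosaic-PBP2 strains grown 24 h on chocolate agar (36 °C, 5% CO2), then direct-suspended in saline and OD600-adjusted. Twofold compound dilutions in Fastidious broth inoculated at 5×10^5 CFU/mL and incubated ~24 h at 36 °C, 5% CO2. MIC read visually as lowest concentration with <10% growth versus full-growth wells.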

[3] = tested on: N. gonorrhoeae WHO Z; experiment: Liquid broth MIC in Fastidious broth; format: cell-based; settings: Neisseria gonorrhoeae, read-out: Minimum Inhibitory Concentration, N. gonorrhoeae WHO Z
In short: as §1

[4] = tested on: N. gonorrhoeae ATCC 49226; experiment: Liquid broth MIC in Fastidious broth; format: cell-based; settings: Neisseria gonorrhoeae, ATCC49226; N. gonorrhoeae strain ATCC 49226; Fastidious broth; read-out: Minimum Inhibitory Concentration, N. gonorrhoeae ATCC 49226
In short: (§2)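 Colonies were swabbed from chocolate agar after 24 h growth and standardised by optical density at 600 nm. Compounds were serially diluted twofold in Fastidious broth, and bacteria added to give 5×10^5 CFU/mL. After about 24 h at 36 °C in 5% CO2, the lowest concentration allowing under 10% growth was taken as MIC.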

[5] = tested on: N. gonorrhoeae WHO L; experiment: Liquid broth MIC in Fastidious broth; format: cell-based; settings: Neisseria gonorrhoeae; N. gonorrhoeae strain WHO L; Fastidious broth; read-out: Minimum Inhibitory Concentration, N. gonorrhoeae WHO L
In short: as §2

[6] = tested on: N. gonorrhoeae H041; experiment: Liquid broth MIC in Fastidious broth; format: cell-based; settings: Neisseria gonorrhoeae, H041, read-out: Minimum Inhibitory Concentration, N. gonorrhoeae H041
In short: as §1

[7] = tested on: N. gonorrhoeae WHO K; experiment: Liquid broth MIC in Fastidious broth; format: cell-based; settings: Neisseria gonorrhoeae, read-out: Minimum Inhibitory Concentration, N. gonorrhoeae WHO K
In short: as §1

[8] = tested on: N. gonorrhoeae FA1090; experiment: Liquid broth MIC in Fastidious broth; format: cell-based; settings: Neisseria gonorrhoeae; N. gonorrhoeae strain FA1090; Fastidious broth; read-out: Minimum Inhibitory Concentration, N. gonorrhoeae FA1090
In short: as §2

[9] = tested on: N. gonorrhoeae WHO G; experiment: Liquid broth MIC in Fastidious broth; format: cell-based; settings: Neisseria gonorrhoeae; N. gonorrhoeae strain WHO G; Fastidious broth; read-out: Minimum Inhibitory Concentration, N. gonorrhoeae WHO G
In short: as §2

T1 sequence (P0AD68 1-577): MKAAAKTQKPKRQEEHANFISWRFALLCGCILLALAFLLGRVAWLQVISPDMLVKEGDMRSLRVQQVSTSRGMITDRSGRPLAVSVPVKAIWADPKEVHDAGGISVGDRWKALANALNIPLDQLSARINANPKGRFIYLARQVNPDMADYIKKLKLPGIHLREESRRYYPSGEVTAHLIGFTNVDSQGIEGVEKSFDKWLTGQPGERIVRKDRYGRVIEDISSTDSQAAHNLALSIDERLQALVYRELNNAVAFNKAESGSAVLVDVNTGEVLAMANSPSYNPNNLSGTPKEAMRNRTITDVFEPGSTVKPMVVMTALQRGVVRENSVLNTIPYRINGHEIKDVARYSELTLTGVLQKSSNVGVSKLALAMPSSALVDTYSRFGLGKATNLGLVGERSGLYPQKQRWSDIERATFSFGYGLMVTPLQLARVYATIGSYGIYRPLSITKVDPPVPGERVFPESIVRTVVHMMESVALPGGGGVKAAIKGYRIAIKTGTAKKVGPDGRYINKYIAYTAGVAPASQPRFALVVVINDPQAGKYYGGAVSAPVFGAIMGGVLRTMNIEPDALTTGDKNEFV

Compound | EC50 [1] | MIC [2] | MIC [3] | MIC [4] | MIC [5] | MIC [6] | MIC [7] | MIC [8] | MIC [9]
CCN1CCN(C(=O)NC(C(=O)N[C@H]2Cc3cccc(C(=O)O)c3OB2O)c2cc(Cl)c(O)cc2F)C(=O)C1=O (stereo partly drawn) [Example 101, (3R)-3-(2-(5-chloro-2-fluoro-4-hydroxyphenyl)-2-(4-ethyl-2,3-dioxopiperazine-1-carboxamido)acetamido)-2-hydroxy-3,4-dihydro-2H-benzo[e][1,2]oxaborinine-8-carboxylic acid] | < 30 µM | 16 to 32 µg/mL (≈ 27.7 to 55.5 µM) | 16 to 32 µg/mL (≈ 27.7 to 55.5 µM) | 4 to 8 µg/mL (≈ 6.94 to 13.9 µM) | 16 to 32 µg/mL (≈ 27.7 to 55.5 µM) | 16 to 32 µg/mL (≈ 27.7 to 55.5 µM) | 16 to 32 µg/mL (≈ 27.7 to 55.5 µM) | 0.25 to 0.5 µg/mL (≈ 0.433 to 0.867 µM) | 1 to 2 µg/mL (≈ 1.73 to 3.47 µM)
CCN1CCN(C(=O)N[C@H](C(=O)N[C@H]2Cc3cccc(C(=O)O)c3OB2O)c2ccc(C(=O)O)cc2)C(=O)C1=O (single isomer, unassigned) [Example 123] | < 30 µM | 4 to 8 µg/mL (≈ 7.24 to 14.5 µM) | 1 to 2 µg/mL (≈ 1.81 to 3.62 µM) | 4 to 8 µg/mL (≈ 7.24 to 14.5 µM) | 16 to 32 µg/mL (≈ 29 to 57.9 µM) | 16 to 32 µg/mL (≈ 29 to 57.9 µM) | 4 to 8 µg/mL (≈ 7.24 to 14.5 µM) | 0.25 to 0.5 µg/mL (≈ 0.453 to 0.905 µM) | 1 to 2 µg/mL (≈ 1.81 to 3.62 µM)
NCCN1CCN(C(=O)N[C@H](C(=O)N[C@H]2Cc3cccc(C(=O)O)c3OB2O)c2c(F)cc(O)cc2F)C(=O)C1=O (single isomer, unassigned) [Example 110] | 30 to 500 µM | > 64 µg/mL | > 64 µg/mL | > 64 µg/mL | > 64 µg/mL | > 64 µg/mL | > 64 µg/mL | 16 to 32 µg/mL (≈ 27.8 to 55.6 µM) | > 64 µg/mL
NCCCN1CCN(C(=O)NC(C(=O)N[C@H]2Cc3ccc(F)c(C(=O)O)c3OB2O)c2c(F)cc(O)cc2F)C(=O)C1=O (stereo partly drawn) [Example 178, (3R)-3-(2-(4-(3-aminopropyl)-2,3-dioxopiperazine-1-carboxamido)-2-(2,6-difluoro-4-hydroxyphenyl)acetamido)-7-fluoro-2-hydroxy-3,4-dihydro-2H-benzo[e][1,2]oxaborinine-8-carboxylic acid] | < 30 µM | > 64 µg/mL | > 64 µg/mL | 16 to 32 µg/mL (≈ 26.3 to 52.7 µM) | > 64 µg/mL | > 64 µg/mL | > 64 µg/mL | 4 to 8 µg/mL (≈ 6.59 to 13.2 µM) | 16 to 32 µg/mL (≈ 26.3 to 52.7 µM)
CCN1CCN(C(=O)NC(C(=O)N[C@H]2Cc3cccc(C(=O)O)c3OB2O)c2cc(Cl)c(O)c(Cl)c2)C(=O)C1=O (stereo partly drawn) [Example 171, (3R)-3-(2-(3,5-dichloro-4-hydroxyphenyl)-2-(4-ethyl-2,3-dioxopiperazine-1-carboxamido)acetamido)-2-hydroxy-3,4-dihydro-2H-benzo[e][1,2]oxaborinine-8-carboxylic acid] | < 30 µM | 16 to 32 µg/mL (≈ 27 to 53.9 µM) | 4 to 8 µg/mL (≈ 6.74 to 13.5 µM) | 4 to 8 µg/mL (≈ 6.74 to 13.5 µM) | > 64 µg/mL | 16 to 32 µg/mL (≈ 27 to 53.9 µM) | 16 to 32 µg/mL (≈ 27 to 53.9 µM) | 0.25 to 0.5 µg/mL (≈ 0.421 to 0.843 µM) | 4 to 8 µg/mL (≈ 6.74 to 13.5 µM)
NC1(CN2CCN(C(=O)N[C@H](C(=O)N[C@H]3Cc4cccc(C(=O)O)c4OB3O)c3c(F)cc(O)cc3F)C(=O)C2=O)CC1 (single isomer, unassigned) [Example 122] | < 30 µM | > 64 µg/mL | > 64 µg/mL | > 64 µg/mL | > 64 µg/mL | > 64 µg/mL | > 64 µg/mL | 4 to 8 µg/mL (≈ 6.65 to 13.3 µM) | > 64 µg/mL
O=C(O)c1c(F)ccc2c1OB(O)[C@@H](NC(=O)C(NC(=O)N1CCN(CCF)C(=O)C1=O)c1c(F)cc(O)cc1F)C2 (stereo partly drawn) [Example 129, (3R)-3-(2-(2,6-difluoro-4-hydroxyphenyl)-2-(4-(2-fluoroethyl)-2,3-dioxopiperazine-1-carboxamido)acetamido)-7-fluoro-2-hydroxy-3,4-dihydro-2H-benzo[e][1,2]oxaborinine-8-carboxylic acid] | < 30 µM | 16 to 32 µg/mL (≈ 26.8 to 53.7 µM) | 4 to 8 µg/mL (≈ 6.71 to 13.4 µM) | 16 to 32 µg/mL (≈ 26.8 to 53.7 µM) | > 64 µg/mL | 16 to 32 µg/mL (≈ 26.8 to 53.7 µM) | 16 to 32 µg/mL (≈ 26.8 to 53.7 µM) | 1 to 2 µg/mL (≈ 1.68 to 3.35 µM) | 4 to 8 µg/mL (≈ 6.71 to 13.4 µM)
CCN1CCN(C(=O)NC(C(=O)N[C@H]2Cc3cccc(C(=O)O)c3OB2O)c2cc(F)c(O)c(Cl)c2)C(=O)C1=O (stereo partly drawn) [Example 164, (3R)-3-(2-(3-chloro-5-fluoro-4-hydroxyphenyl)-2-(4-ethyl-2,3-dioxopiperazine-1-carboxamido)acetamido)-2-hydroxy-3,4-dihydro-2H-benzo[e][1,2]oxaborinine-8-carboxylic acid] | < 30 µM | 16 to 32 µg/mL (≈ 27.7 to 55.5 µM) | 4 to 8 µg/mL (≈ 6.94 to 13.9 µM) | 4 to 8 µg/mL (≈ 6.94 to 13.9 µM) | 16 to 32 µg/mL (≈ 27.7 to 55.5 µM) | 16 to 32 µg/mL (≈ 27.7 to 55.5 µM) | 16 to 32 µg/mL (≈ 27.7 to 55.5 µM) | 0.25 to 0.5 µg/mL (≈ 0.433 to 0.867 µM) | 1 to 2 µg/mL (≈ 1.73 to 3.47 µM)
CCN1CCN(C(=O)NC(C(=O)N[C@H]2Cc3cccc(C(=O)O)c3OB2O)c2cc(F)c(O)cc2F)C(=O)C1=O (stereo partly drawn) [Example 104, (3R)-3-(2-(2,5-difluoro-4-hydroxyphenyl)-2-(4-ethyl-2,3-dioxopiperazine-1-carboxamido)acetamido)-2-hydroxy-3,4-dihydro-2H-benzo[e][1,2]oxaborinine-8-carboxylic acid] | < 30 µM | 4 to 8 µg/mL (≈ 7.14 to 14.3 µM) | 4 to 8 µg/mL (≈ 7.14 to 14.3 µM) | 4 to 8 µg/mL (≈ 7.14 to 14.3 µM) | 16 to 32 µg/mL (≈ 28.6 to 57.1 µM) | 16 to 32 µg/mL (≈ 28.6 to 57.1 µM) | 16 to 32 µg/mL (≈ 28.6 to 57.1 µM) | 0.25 to 0.5 µg/mL (≈ 0.446 to 0.892 µM) | 1 to 2 µg/mL (≈ 1.78 to 3.57 µM)
NCCN1CCN(C(=O)NC(C(=O)N[C@H]2Cc3cccc(C(=O)O)c3OB2O)c2cc(F)c(O)c(Cl)c2)C(=O)C1=O (stereo partly drawn) [Example 163, (3R)-3-(2-(4-(2-aminoethyl)-2,3-dioxopiperazine-1-carboxamido)-2-(3-chloro-5-fluoro-4-hydroxyphenyl)acetamido)-2-hydroxy-3,4-dihydro-2H-benzo[e][1,2]oxaborinine-8-carboxylic acid] | < 30 µM | > 64 µg/mL | > 64 µg/mL | > 64 µg/mL | > 64 µg/mL | > 64 µg/mL | > 64 µg/mL | 1 to 2 µg/mL (≈ 1.69 to 3.38 µM) | 16 to 32 µg/mL (≈ 27 to 54.1 µM)
NCCN1CCN(C(=O)NC(C(=O)N[C@H]2Cc3cccc(C(=O)O)c3OB2O)c2cc(F)c(O)cc2Cl)C(=O)C1=O (stereo partly drawn) [Example 109, (3R)-3-(2-(4-(2-aminoethyl)-2,3-dioxopiperazine-1-carboxamido)-2-(2-chloro-5-fluoro-4-hydroxyphenyl)acetamido)-2-hydroxy-3,4-dihydro-2H-benzo[e][1,2]oxaborinine-8-carboxylic acid] | < 30 µM | > 64 µg/mL | > 64 µg/mL | > 64 µg/mL | > 64 µg/mL | > 64 µg/mL | > 64 µg/mL | 4 to 8 µg/mL (≈ 6.76 to 13.5 µM) | > 64 µg/mL
NCCN1CCN(C(=O)N[C@H](C(=O)N[C@H]2Cc3ccc(F)c(C(=O)O)c3OB2O)c2c(F)cc(O)cc2F)C(=O)C1=O (single isomer, unassigned) [Example 128] | 30 to 500 µM | > 64 µg/mL | > 64 µg/mL | > 64 µg/mL | > 64 µg/mL | > 64 µg/mL | > 64 µg/mL | 16 to 32 µg/mL (≈ 27 to 53.9 µM) | > 64 µg/mL
CCN1CCN(C(=O)NC(C(=O)N[C@H]2Cc3cccc(C(=O)O)c3OB2O)c2cccc(CN)c2)C(=O)C1=O (stereo partly drawn) [Example 108, (3R)-3-(2-(3-(aminomethyl)phenyl)-2-(4-ethyl-2,3-dioxopiperazine-1-carboxamido)acetamido)-2-hydroxy-3,4-dihydro-2H-benzo[e][1,2]oxaborinine-8-carboxylic acid] | 30 to 500 µM | > 64 µg/mL | > 64 µg/mL | 16 to 32 µg/mL (≈ 29.8 to 59.6 µM) | > 64 µg/mL | > 64 µg/mL | > 64 µg/mL | 1 to 2 µg/mL (≈ 1.86 to 3.72 µM) | 4 to 8 µg/mL (≈ 7.44 to 14.9 µM)
NCCN1CCN(C(=O)N[C@H](C(=O)N[C@H]2Cc3cccc(C(=O)O)c3OB2O)c2cc(F)c(O)c(F)c2F)C(=O)C1=O (single isomer, unassigned) [Example 167] | 30 to 500 µM | > 64 µg/mL | > 64 µg/mL | 16 to 32 µg/mL (≈ 27 to 53.9 µM) | > 64 µg/mL | > 64 µg/mL | > 64 µg/mL | 1 to 2 µg/mL (≈ 1.69 to 3.37 µM) | 16 to 32 µg/mL (≈ 27 to 53.9 µM)
CS(=O)(=O)N1CCN(C(=O)N[C@H](C(=O)N[C@H]2Cc3cccc(C(=O)O)c3OB2O)c2c(F)cc(O)cc2F)C1=O (single isomer, unassigned) [Example 136] | 30 to 500 µM | > 64 µg/mL | > 64 µg/mL | > 64 µg/mL | > 64 µg/mL | > 64 µg/mL | > 64 µg/mL | 1 to 2 µg/mL (≈ 1.72 to 3.43 µM) | 16 to 32 µg/mL (≈ 27.5 to 55 µM)
